Measurements from US20220119446A1, “BIOMARKERS AND TREATMENT OF NEURONAL INJURY AND NEURODEGENERATION” (Board of Supervisons of Louisiana State University and …, priority 2018, published 2022).
“Also recorded” adds a separate entry of the source. * marks the point of attachment. Boc = CC(C)(C)OC(=O)*

Tests used:
Type in all cases: cell-based, human
FZD5 [1] = assay: Western blot of FZD5 protein in hpRPE cells under UOS
Experimental: The pellet was re-suspended and denatured in 100 μl of 2× Laemmli sample buffer (Bio-Rad Laboratories) at 95° C. for 5 min. MCAo brain tissue and cell samples were homogenized using RIPA (Thermo Fisher Scientific) buffer supplemented with protease and phosphatase inhibitor cocktails (Sigma). The amount of 30 μg of total protein was loaded in NuPAGE® Novex® 4-12% Bis-Tris precast gels (Life Technologies Corporation) or Mini-PROTEAN TGX Stain free gels 4-15% and ran at constant 120V for 1 hour and 20 min or 250 V for 40 min respectively. Proteins were transferred to μm Nitrocellulose or LF-PVDF membrane using Bio-Rad Trans-Blot® Turbo™ System (Bio-Rad Laboratories). ECL™ Plex Fluorescent Rainbow Markers (GE Healthcare) were used as the ladder for protein's molecular weight. Membranes were blocked using 5% non-fat dry milk (Bio-Rad Laboratories) in TBS with 1% Tween® 20 (TBST-10X) for 1 hour and incubated overnight with primary antibodies. Anti-mouse or anti-rabbit secondary antibodies conjugated with Cy3 or Cy5 were used to visualize the protein of interest. Immunoblots were documented using LAS 4000 imaging system (GE Healthcare Life Sciences) or ChemiDoc MP Imaging System (BioRad Laboratories). A time course exposition was produced in each case to prevent quantification of saturated images. Densitometry data was obtained using ImageQuant™ TL software and XRS Blot Chemi Software (BioRad Laboratories).

FZD5 [2] = assay: SYBR green real-time PCR of Wnt5a receptors/co-receptors in RPE cells under UOS
Experimental: Cell samples, total RNA was extracted by RNeasy Mini Kit (QIAGEN) following manufacturer's protocol. The purity and concentration of RNA were determined by NanoDrop ND-1000 Spectrophotometer (Thermo Fisher Scientific). cDNA first strand was obtained from one microgram of total RNA using iScript™ Reverse Transcription Supermix (Bio-Rad Laboratories, CA, USA). The resulting cDNA was used as template SYBR-green or Eva-green based real-time PCR quantification using SsoAdvance Universal Supermix (Bio-Rad Laboratories). Data was collected and analyzed using CFX Manager 3.0 software, the ΔΔCt method. Melting curve was produced for every run to assure a unique amplified product per primer set.

β-catenin = assay: TOP Flash/FOP flash luciferase reporter in hpRPE cells; conditions: hpRPE cells undergoing UOS+/−NPD1
Excerpt: We tested whether or not Wnt5a activates […] using TOP Flash/FOP flash reporter system in hpRPE cells undergoing UOS+/−NPD1 (FIG. 1g).
(§1) Except TOP/FOP flash, the Luciferase activity can be standardized using a construct expressing GFP constitutively under CMV virus promoter. To assess luciferase activity, cell lysates can be obtained using Passive Lysis Buffer (Promega, Madison, Wis.) and mixed with a luciferase assay reagent (Promegam Madison, Wis.). Chemiluminescence produced by luciferase and fluorescence from GFP can be detected using Appliscan 2.3. Data can be analyzed using SkanIt 2.3 (Thermo Fisher Scientific, Waltham, Mass.).
(§2) Except TOP/FOP flash, the Luciferase activity was standardized using a construct expressing GFP constitutively under CMV virus promoter. To assess luciferase activity, cell lysates were obtained using Passive Lysis Buffer (Promega) and mixed with a luciferase assay reagent (Promega). Chemiluminescence produced by luciferase and fluorescence from GFP was detected using Appliscan 2.3. Data were analyzed using SkanIt 2.3 (Thermo Fisher Scientific).

COX-2 promoter = COX-2 promoter luciferase reporter assay; conditions: for COX-2 promoter activity (luciferase): hRPE cells, +/− 100 nM and 200 nM NPD1
Excerpt: as §1
A, Design of luciferase reporter assay performed with COX-2 promoter construct. UOS was induced by the addition of 10 ng/ml TNFα and 600 μM H2O2 in ARPE-19 cells. The concentrations of Wnt5a used was 50 ng/ml. Cells were co-transfected with the constructs driving the expression of luciferase and a plasmid that constitutively expressed green fluorescent protein for standardization. Luciferase activity is denoted in luciferase activity units (LUC) and standardized using GFP fluorescent (GFP). B, Wnt5a and IL-1β effect time course on COX-2 promoter activity. […] Luciferase activity (LUC) was measured in ARPE-19 cells in the presence of 50 ng/ml Wnt5a or 20 ng/ml IL1-β. […] Luciferase activity measured in cells incubated with 50 ng/ml Wnt5a in the presence or absence of 100 nM (+) and 200 nM (++) NPD1.

NF-κB/p65 = NF-κB/p65 luciferase reporter assay in hpRPE cells
Experimental: We asked if Wnt5a activates inflammatory signaling to enhance apoptosis mediated by UOS by assessing COX-2 promoter activation (FIG. 10). […] To compare Wnt5a effects with other cytokines that enhance COX-2 expression, Interleukin-1β (IL-1β) activity was measured. […] To determine if Wnt5a activates NF-κB, hpRPE were transfected with a construct that encompassed three p65 high-affinity binding sites in tandem, driving the expression of the luciferase reporter gene (FIG. 1G). […] To assess whether or not FDZ5 and ROR2 were involved in NF-κB activation by Wnt5a, cells were co-transfected with siRNAs targeting the two receptors (FIG. 11).
as §1, §2

[3] = hpRPE under UOS in the presence of Wnt5a 50 ng/ml, NPD1 100 or 200 nM, Pitstop2 25 μM

Molecule	FZD5 protein abundance (FZD5 [1]; Box5, even in the presence of Wnt5a 50 ng/ml)	FZD5 expression (FZD5 [2]; ARPE-19 cells, UOS gives 3-fold increase (FIG. 1F))	FZD5 mRNA (FZD5 [2]; hpRPE exposed to UOS, UOS gives 2-fold rise)	ROR1 expression (FZD5 [2]; reduced under UOS)	β-catenin activity (luciferase) (β-catenin)	COX-2 promoter activity (luciferase) (COX-2 promoter; 50 ng/ml Wnt5a)	NF-κB/p65 activation (luciferase) (NF-κB/p65; [3])	NF-κB activation in cells co-transfected with ROR2 and FZD5 siRNAs (NF-κB/p65; hpRPE under UOS, double knockdown)	NF-κB/p65 activation (luciferase) (NF-κB/p65; hpRPE under UOS, no Wnt5a added)	FZD5 protein abundance (FZD5 [1]; 100 nM NPD1, Wnt5a present)	FZD5 protein abundance (FZD5 [1]; 100 nM NPD1, absence of Wnt5a)	time of peak COX-2 promoter activity after addition (COX-2 promoter; ARPE-19 cells, 50 ng/ml Wnt5a)	COX-2 promoter activation (luciferase) (COX-2 promoter; ARPE-19 cells, 50 ng/ml Wnt5a or 20 ng/ml IL1-β)
t-Boc-NH-Met-Asp-Gly-Cys-Glu-Leu-CO2H (Boc-MDGCEL-OH) [Box5]	decreased FZD5 abundance by half of the level	–	–	–	–	–	–	–	–	–	–	–	–
CC/C=C\C[C@H](O)\C=C/C=C/C=C/[C@H](O)C/C=C\C/C=C\CCC(=O)O [NPD1, 10R,17S-dihydroxy-docosa-4Z,7Z,11E,13E,15Z,19Z-hexaenoic acid]	–	counteracted this effect	downregulated	re-established	not significantly altered	down by half; also recorded: prevents Wnt5a-induced activation of COX-2 promoter	reduced luciferase activity; also recorded: affects its activation when Wnt5a is added	not affected	did not affect NF-κB/p65; also recorded: does not prevent activation of NF-κB triggered by UOS; also recorded: did not affect NFkB/p65	steep decrease in the receptor content	no differences in the FZD5 receptor were observed	–	–
Wnt5a: Recombinant Human/Mouse Wnt-5a Protein, CHO-derived (Gln38-Lys380), R&D systems 645-WN (protein) QVVIEANSWWSLGMNNPVQMSEVYIIGAQPLCSQLAGLSQGQKKLCHLYQDHMQYIGEGAKTGIKECQYQFRHRRWNCSTVDNTSVFGRVMQIGSRETAFTYAVSAAGVVNAMSRACREGELSTCGCSRAARPKDLPRDWLWGGCGDNIDYGYRFAKEFVDARERERIHAKGSYESARILMNLHNNEAGRRTVYNLADVACKCHGVSGSCSLKTCWLQLADFRKVGDALKEKYDSAAAMRLNSRGKLVQVNSRFNSPTTQDLVYIDPSPDYCVRNESTGSLGTQGRLCNKTSEGMDGCELMCCGRGYDQFKTVQTERCHCKFHWCCYVKCKKCTEIVDQFVCK	–	–	–	–	did not affect β-catenin; also recorded: does not affect activation of β-catenin	increased COX-2 activation	heightens NF-κB activation; also recorded: heightened NFkB activation	–	–	–	–	4 h	induced COX-2 promoter activation
